{"source": "paper PMC7884382", "about": "“A Phase 1 study of RO6870810, a novel bromodomain and extra-terminal protein inhibitor, in patients with NUT carcinoma, other solid tumours, or diffuse large B-cell lymphoma” (British Journal of Cancer, 2020)", "assay_type_in_all_cases": "in vivo, human", "key": {"[1]": {"test": "RO6870810 plasma pharmacokinetics", "procedure": "The determination of RO6870810 PK was another secondary objective. RO6870810 plasma levels were measured during treatment and during the follow-up period. Venous blood samples were collected on multiple days during cycle 1 and on day 1 of subsequent cycles. Complete PK assessment parameters are included in the Supplementary Methods. Patients with sufficient data to determine PK parameters were included in the PK analysis population.\n(§1) Formal hypothesis testing was not performed for this Phase 1 study. The sample size was based on a standard 3 + 3 dose-escalation design and was considered sufficient to evaluate the safety and clinical activity of RO6870810. AEs were coded using the current Medical Dictionary for Regulatory Activities, and safety and clinical efficacy were summarised using descriptive statistics. The 95% CI for the objective response rate was calculated using Wilson’s score method with continuity correction, and PFS was analysed using the Kaplan–Meier method. For the PK analyses, key exposure parameters such as maximum plasma concentration (Cmax) and area under the curve were summarised with descriptive statistics, and dose-exposure relationships were plotted graphically. Percentage changes in CD11b from baseline by flow cytometry were summarised with descriptive statistics and plotted over time. The relationship between percentage change from baseline in CD11b (average of three measurements taken pre-dose, at 2 h and at 4 h) on day 15 and the RO6870810 dose was plotted. To investigate the relationship between individual percentage changes in CD11b from baseline and RO6870810 concentration on day 15, the nonparametric regression LOESS curve fitting (locally weighted scatterplot smoothing) method was applied.\nRO6870810 plasma concentrations were assessed in blood samples collected as follows:\nCycle 1, day 1: Blood samples were collected before and immediately after injection and 0.25, 0.5, 1, 2, 4, 6, 8, and 10 hours after the injection was completed\nCycle 1, day 2: Blood samples were collected 24 hours (pre-dose) and 28 hours (4 hours after receiving a second dose) after the injection on day 1 was completed\nCycle 1, day 8: A blood sample was drawn at the visit as a random value\nCycle 1, day 15: Blood samples were drawn before and immediately after injection and 0.25, 0.5, 1, 2, and 4 hours after the injection was completed\nCycle 1, day 22: Blood samples were drawn at the visit as a random value (28-day treatment cycle only)\nCycle X, day 1: On day 1 of all cycles after cycle 1, blood samples were drawn as a random value during the study visit\nA blood sample was drawn as a random value during the end-of-treatment visit on early termination"}, "[2]": {"tested_on": "CD11b expression in monocytes", "test": "Pharmacodynamics: CD11b expression by flow cytometry", "procedure": "as §1, with “For pharmacodynamic assessments, venous blood samples were collected and CD11b expression in monocytes was assessed as a surrogate marker of target engagement using flow cytometry before and after the first administration of RO6870810. Samples were obtained on cycle 1, day 1 (pre-dose and 2, 4 and 8 h post dose) and on cycle 1, day 15 (pre-dose and 2- and 4-h post dose). […] Formal” for “Formal”"}, "[3]": {"tested_on": "diffuse large B-cell lymphoma (DLBCL)", "test": "Clinical activity in DLBCL sub-study (Lugano classification)", "description": "Evaluation of the anticancer activity of RO6870810 was a secondary objective, as measured by time to first and best response, overall response rate, progression-free survival (PFS), duration of response and overall survival. […] Scans could also be obtained after one cycle following a study amendment. […] Responders were defined as patients who achieved a confirmed CR or partial response (PR). PFS was defined as the time from the date of first study drug administration to the first date of objectively determined progressive disease (PD) or death from any cause. PFS was censored at the date of the most recent objective progression-free observation for patients who were still alive at the time of analysis and without evidence of tumour progression. For patients who received subsequent anticancer therapy prior to objective disease progression or death, PFS was censored at the date of the last objective progression-free observation prior to the date of subsequent therapy."}, "[4]": {"settings": "DLBCL, % of n = 13 with non-missing best response"}}, "note": "Where “and” joins values, the source holds several entries; their conditions need not be identical. Equal values may be shown once. Marks after values point to notes of the source that are not given here.", "data": [{"smiles": "Cc1sc2c(c1C)C(c1ccc(Cl)cc1)=N[C@@H](CC(=O)NCCCN1CCN(C)CC1)c1nnc(C)n1-2", "note": "[RO6870810]", "values": [{"measurement": "Dose-exposure relationship (Cmax and area under the curve over 24 h)", "setting": "[1]; 0.03-0.65 mg/kg, cycle 1, day 1", "result": "dose-proportional"}, {"measurement": "Absorption", "setting": "[1]; SC, across dose levels", "result": "rapid absorption"}, {"measurement": "Time to Cmax", "setting": "[1]; SC, days 1 and 15 of cycle 1", "result": "≤ 1", "unit": "h"}, {"measurement": "Time to Cmax, median", "setting": "[1]; SC, days 1 and 15 of cycle 1", "result": 0.5, "unit": "h"}, {"measurement": "half-life", "setting": "[1]; human, plasma, sc", "result": "≥ 600", "unit": "min"}, {"measurement": "Clearance", "setting": "[1]; in vivo", "result": "bodyweight dependent"}, {"measurement": "Interpatient variability of Cmax", "setting": "[1]; in vivo", "result": 38, "unit": "%"}, {"measurement": "Interpatient variability of area under the curve over 24 h", "setting": "[1]; in vivo", "result": 38, "unit": "%"}, {"measurement": "Metabolites in plasma", "setting": "[1]; leftover plasma samples screened", "result": "no metabolites were found"}, {"measurement": "Change in CD11b during the dosing period", "setting": "[2]; across dose levels, with the exception of the 0.03-mg/kg dose", "result": "sustained decreases in CD11b"}, {"measurement": "Largest decreases in CD11b", "setting": "[2]; at ≥0.2 mg/kg, cycle 1, day 15", "result": "≥ 50", "unit": "%"}, {"measurement": "Doses at which mean decreases in CD11b occurred", "setting": "[2]; cycle 1, day 15", "result": "> 0.06", "unit": "mg/kg"}, {"measurement": "RO6870810 concentration reaching a 50% reduction in CD11b", "setting": "[2]; cycle 1, day 15, LOESS curve", "result": "> 150", "unit": "ng/mL"}, {"measurement": "Complete response", "setting": "[3]; DLBCL (n = 19)", "result": "0 n (%)"}, {"measurement": "Median time to first response (min-max)", "setting": "[3]; DLBCL (n = 19)", "result": "45.0 (41–49) days"}, {"measurement": "Missing response (no postbaseline tumour assessment)", "setting": "[3]; DLBCL (n = 19)", "result": "6 n (%)"}, {"measurement": "Unknown response", "setting": "[3]; DLBCL (n = 19)", "result": "0 n (%)"}, {"measurement": "Median PFS", "setting": "[3]; DLBCL, 19 patients", "result": 29, "unit": "days"}, {"measurement": "PFS range", "setting": "[3]; DLBCL, 19 patients", "result": "18 to 708", "unit": "days"}, {"measurement": "Objective response rate", "setting": "[3]; DLBCL, n = 2 of 19, 95% CI, 2–35%", "result": "11% and 10.5%"}, {"measurement": "Partial response", "setting": "[3]; [4]", "result": "2 (15.4)^d n (%)"}, {"measurement": "Progressive disease", "setting": "[3]; [4]", "result": "7 (53.8)^d n (%)"}, {"measurement": "Stable disease", "setting": "[3]; [4]", "result": "4 (30.8)^d n (%)"}, {"measurement": "PR as best response", "setting": "[3]; DLBCL, n = 2 of 13 with non-missing data", "result": 15, "unit": "%"}, {"measurement": "PD as best response", "setting": "[3]; DLBCL, n = 7 of 13 with non-missing data", "result": 54, "unit": "%"}, {"measurement": "Decrease in target tumour volume (PR)", "setting": "[3]; person, GCB DLBCL, 0.45 mg/kg 21 of 28 days, after cycle 1", "result": 55, "unit": "%"}, {"measurement": "Reduction from baseline in target tumour volume", "setting": "[3]; person, GCB DLBCL, end of cycle 2 (PD by objective criteria)", "result": 64, "unit": "%"}]}]}
